From patent US20080311126A1, “Antisense Oligonucleotides Directed to Ribonucleotide Reducatase R2 and Uses Thereof in Combination Therapies for the Treatment of Cancer” (Genesense Technologies, Inc, priority 2004, published 2008) come the findings set out here.

Entries after “also recorded” stand apart in the source; their conditions may differ.

For series [1], the system named is MDA-MB435-To.1 human Taxol-resistant breast adenocarcinoma cells. Nature of the series: MDA-MB435-To.1 Taxol-resistant breast adenocarcinoma, fat pad injection in SCID mice. The format is in vivo. Conditions: for Tumour weight as % of saline control: MDA-MB435-To.1 (breast), Taxol resistance. Also noted: Tumour weight as % of saline control: concentration or dose not given beside the values. The method, then:
MDA-MB435-To.1 human Taxol-resistant breast adenocarcinoma cells (4×10^6 cells in […] of PBS) were injected into the fat pad (inside of right leg) of 6-7 weeks old female SCID mice. After the size of tumour reached an approximate volume of 100 mm^3, 20 days post tumour cell injection, SEQ ID NO:1 was administered by bolus infusion into the tail vein every other day at 10 mg/kg 15 times. Control animals received saline alone for the same period. Antitumour effect of SEQ ID NO:1 was further compared to that of Cisplatin or Taxol alone. Cisplatin was administered intravenously once a week for four weeks at a dose of 4 mg/kg. Taxol was administered intravenously once a week for four weeks at a dose of 20 mg/kg.
Antitumour activities were estimated by the inhibition of tumour volume, which was measured with caliper. Bach point represents mean tumour volume calculated from 9-10 animals per experimental group. […] As expected, treatment with Taxol during the same period was ineffective against Taxol-resistant tumour.
MDA-MB435-To.1 human Taxol-resistant breast adenocarcinoma cells (4×10^6 cells in 100 μl of PBS) were injected into the fat pad (inside of right leg) of 6-7 weeks old female CB-17 SCID mice. After the size of tumour reached an approximate volume of 100 mm^3, 17 days post tumour cell injection, SEQ ID NO:1 was administered by bolus infusion into the tail vein every other day at 10 mg/kg. Control animals received saline alone for the same period. Antitumour effect of SEQ ID NO:1 was compared to that of Cisplatin alone and in combination. Cisplatin was administered intravenously once a week for four weeks at a dose of 4 mg/kg. Antitumour activities were estimated by the inhibition of tumour volume, which was measured with caliper. Each point represents mean tumour volume calculated from 10 animals per experimental group. At the end of the study the animals were sacrificed and tumours weighed.

Series [2] relates to Human Pancreatic Adenocarcinoma. The series can be described thus: Tumour growth assay, human pancreatic adenocarcinoma in mice. The class given is in vivo.
The test system of series [3] is Human Glioblastoma-Astrocytoma. Nature of the series: Tumour growth assay, human glioblastoma-astrocytoma in mice. The class given is in vivo.
A further series deals with Hela S3 cells. Nature of the series: Relative colony forming efficiency, lipofectin +/- oligonucleotide 4 hours. The class given is cell-based, human. The following applies: Hela S3 cervix carcinoma cells; averages of 2-8 determinations. The gist of the method:
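HeLa S3 cells were exposed to phosphorothioate antisense oligonucleotide (0.2 μM unless stated) with lipofectin for 4 h, then grown 7–10 days in 10% FBS medium. Methylene blue-stained colonies were counted and expressed as percent survival relative to lipofectin-only controls.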

“GGCTAAATCGCTCCACCAAG (chemistry not given here) [SEQ ID NO: 1, antisense oligonucleotide that hybridizes to the coding region of human ribonucleotide reductase R2 mRNA]”: the “antitumour effect (tumour volume)” value in series [1] (Example 13.5, SEQ ID NO:1 10 mg/kg 15 times, Cisplatin 4 mg/kg, Taxol 20 mg/kg i.v. weekly for four weeks) was “significant reduction of tumour weight; also recorded: superior to the inhibitory effects observed with Cisplatin”. The “antitumour effect (tumour volume, tumour weight)” value in series [1] (Example 13.6, CB-17 SCID mice, SEQ ID NO:1 10 mg/kg every other day, Cisplatin 4 mg/kg i.v. weekly) is reported as “significant reduction of tumour weight; also recorded: superior to the inhibitory effects observed with Cisplatin”. Further, the results for the “Tumour weight as % of saline control” value in series [1] (CB-17/SCID) and in series [1] (SCID) were 37% and 42%, respectively. In addition, the “Inhibition of tumour weight” value in series [2] (Human Pancreatic Adenocarcinoma) and in series [3] was “approximately 65%” throughout. Moreover, the “inhibition of tumour growth” value in series [2] (up to 39 days after tumour implantation) is listed as “Complete inhibition of tumour growth”. In the series with Hela S3 cells, the “Reduced relative colony forming efficiency, Hela S3 (% inhibition of colony forming ability)” value is 67.92%.
